# Assay results: patent US11279733B2, “Peptide antibiotics” (priority 2017, dated 2022)
# Read-outs that look alike come from different tables or passages of the source. Positions of bridges follow the written chain, without caps; N, C: chain ends. Non-standard residues stand in square brackets, D forms with d. Residues, ends and D or L forms follow the SMILES beside them. *: point of attachment. Ala(benzothiazol-2-yl) = N[C@@H](Cc1nc2ccccc2s1)C(=O)O; Decanoyl(3R-OH) = CCCCCCC[C@@H](O)CC(=O)*; 2Nal = N[C@@H](Cc1ccc2ccccc2c1)C(=O)O; 3Pal = N[C@@H](Cc1cccnc1)C(=O)O; 4Pal = N[C@@H](Cc1ccncc1)C(=O)O; dDab = NCC[C@@H](N)C(=O)O; Octanoyl = CCCCCCCC(=O)*; dDap = NC[C@@H](N)C(=O)O; Dab = NCC[C@H](N)C(=O)O
# Experiments:
# [1] = test system: A. baumannii ATCC 19606; conditions: ATCC 19606
# In short: (§1)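 Mid-log cultures grown in Mueller Hinton broth at 37° C were tested by 2-fold broth microdilution at 5×10^5 CFU/mL final. Compounds were dissolved in water and tested over a final range of 32 to 0.015 μg/mL.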
# [2] = test system: A. baumannii GN_093 PmxR; conditions: GN 093 PmxR
# In short: as §1
# [3] = test system: E. coli ATCC 25922; conditions: ATCC 25922
# In short: as §1
# [4] = test system: K. pneumoniae ATCC 13883; conditions: ATCC 13883
# In short: as §1
# [5] = test system: K. pneumoniae ATCC 700603, MDR; conditions: ATCC 700603
# In short: as §1
# [6] = test system: K. pneumoniae ATCC BAA-2146, NDM-1 pos; conditions: ATCC BAA-2146
# In short: as §1
# [7] = test system: K. pneumoniae GN_102 PmxR; conditions: GN 102 PmxR
# In short: as §1
# [8] = test system: K. pneumoniae GN_106, PmxR; conditions: GN 106, PmxR
# In short: as §1
# [9] = test system: P. aeruginosa ATCC 27853; conditions: ATCC 27853
# In short: as §1
# [10] = test system: P. aeruginosa GN_043, PmxR; conditions: polymyxin-resistant
# In short: as §1
# [11] = test system: P. aeruginosa GN_105, PmxR; conditions: GN 105, PmxR
# In short: as §1
# [12] = test system: S. aureus ATCC 25923, MSSA; conditions: ATCC 25923
# In short: as §1
# [13] = in vitro; conditions: human
# In short: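 Fluorescence read-out (excitation 560, emission 590) after a 2 h, 37 °C incubation with 5 μM resazurin, following 24 h compound treatment of cells plated at 4000 per well. CC50 values come from fitting dose–response curves of growth inhibition.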
Structure (SMILES),MIC A. baumannii ATCC 19606 [1] [µg/mL],MIC A. baumannii GN_093 PmxR [2] [µg/mL],MIC E. coli ATCC 25922 [3] [µg/mL],MIC K. pneumoniae ATCC 13883 [4] [µg/mL],"MIC K. pneumoniae ATCC 700603, MDR [5] [µg/mL]","MIC K. pneumoniae ATCC BAA-2146, NDM-1 pos [6] [µg/mL]",MIC K. pneumoniae GN_102 PmxR [7] [µg/mL],"MIC K. pneumoniae GN_106, PmxR [8] [µg/mL]",MIC P. aeruginosa ATCC 27853 [9] [µg/mL],"MIC P. aeruginosa GN_043, PmxR [10] [µg/mL]","MIC P. aeruginosa GN_105, PmxR [11] [µg/mL]","MIC S. aureus ATCC 25923, MSSA [12] [µg/mL]",CC50 at 24 h [13] [µM],other results
"CCCCCCCC(=O)N[C@H](CCN)C(=O)N[C@H]1CCNC(=O)[C@H](Cc2c[nH]c3ccccc23)NC(=O)[C@H](CCN)NC(=O)[C@H](CCN)NC(=O)[C@H](CC(C)C)NC(=O)[C@@H](Cc2ccccc2)NC(=O)[C@H](CCN)NC1=O [compound 8901, nC7CO-D-Dab-cyc[L-Dab-L-Dab-D-Phe-L-Leu-L-Dab-L-Dab-L-Trp]] (Octanoyl-[dDab][Dab][Dab][dF]L[Dab][Dab]W; lactam 2-C)",32,>32,8,8,8,8,32,32,2,2,8,16,> 300,–
"CCCCCCC[C@@H](O)CC(=O)N[C@H](CCN)C(=O)N[C@H]1CCNC(=O)[C@H](Cc2ccncc2)NC(=O)[C@H](CCN)NC(=O)[C@H](CCN)NC(=O)[C@H](CC(C)C)NC(=O)[C@@H](Cc2ccccc2)NC(=O)[C@H](CCN)NC1=O [compound 8906, 3(R)OH-nC9CO-D-Dab-cyc[L-Dab-L-Dab-D-Phe-L-Leu-L-Dab-L-Dab-L-Ala(4py)]] ({Decanoyl(3R-OH)}-[dDab][Dab][Dab][dF]L[Dab][Dab][4Pal]; lactam 2-C)",>32,>32,4,4,4,8,16,16,1,0.5,2,>32,> 300,–
"CCCCCCC[C@@H](O)CC(=O)N[C@H](CCN)C(=O)N[C@H]1CCNC(=O)[C@H](Cc2cccnc2)NC(=O)[C@H](CCN)NC(=O)[C@H](CCN)NC(=O)[C@H](CC(C)C)NC(=O)[C@@H](Cc2ccccc2)NC(=O)[C@H](CCN)NC1=O [compound 8907, 3(R)OH-nC9CO-D-Dab-cyc[L-Dab-L-Dab-D-Phe-L-Leu-L-Dab-L-Dab-L-Ala(3py)]] ({Decanoyl(3R-OH)}-[dDab][Dab][Dab][dF]L[Dab][Dab][3Pal]; lactam 2-C)",>32,>32,4,4,4,8,32,8,1,1,1,>32,> 300,–
"CCCCCCC[C@@H](O)CC(=O)N[C@H](CCN)C(=O)N[C@H]1CCNC(=O)[C@H](Cc2ccc3ccccc3c2)NC(=O)[C@H](CCN)NC(=O)[C@H](CCN)NC(=O)[C@H](CC(C)C)NC(=O)[C@@H](Cc2ccccc2)NC(=O)[C@H](CCN)NC1=O [compound 8908, 3(R)OH-nC9CO-D-Dab-cyc[L-Dab-L-Dab-D-Phe-L-Leu-L-Dab-L-Dab-L-Ala(2Naphthyl)]] ({Decanoyl(3R-OH)}-[dDab][Dab][Dab][dF]L[Dab][Dab][2Nal]; lactam 2-C)",4,4,2,2,4,4,4,4,4,4,2,4,39,–
"CCCCCCC[C@@H](O)CC(=O)N[C@H](CCN)C(=O)N[C@H]1CCNC(=O)[C@H](Cc2nc3ccccc3s2)NC(=O)[C@H](CCN)NC(=O)[C@H](CCN)NC(=O)[C@H](CC(C)C)NC(=O)[C@@H](Cc2ccccc2)NC(=O)[C@H](CCN)NC1=O [compound 8910, 3(R)OH-nC9CO-D-Dab-cyc[L-Dab-L-Dab-D-Phe-L-Leu-L-Dab-L-Dab-L-Ala(Bth)]] ({Decanoyl(3R-OH)}-[dDab][Dab][Dab][dF]L[Dab][Dab][Ala(benzothiazol-2-yl)]; lactam 2-C)",8,4,2,4,4,4,8,4,2,4,2,4,47,–
"CCCCCCC[C@@H](O)CC(=O)N[C@H](CCN)C(=O)N[C@H]1CCNC(=O)[C@H](Cc2c[nH]cn2)NC(=O)[C@H](CCN)NC(=O)[C@H](CCN)NC(=O)[C@H](CC(C)C)NC(=O)[C@@H](Cc2ccccc2)NC(=O)[C@H](CCN)NC1=O [compound 8911, 3(R)OH-nC9CO-D-Dab-cyc[L-Dab-L-Dab-D-Phe-L-Leu-L-Dab-L-Dab-L-His]] ({Decanoyl(3R-OH)}-[dDab][Dab][Dab][dF]L[Dab][Dab]H; lactam 2-C)",>32,>32,8,>32,8,16,>32,32,2,2,16,>32,> 300,–
"CCCCCCCC(=O)N[C@H](CN)C(=O)N[C@H]1CCNC(=O)[C@H](CC(C)C)NC(=O)[C@H](CCN)NC(=O)[C@H](CCN)NC(=O)[C@H](CC(C)C)NC(=O)[C@@H](Cc2ccccc2)NC(=O)[C@H](CCN)NC1=O [compound 8976, nC7CO-D-Dap-cyc[L-Dab-L-Dab-D-Phe-L-Leu-L-Dab-L-Dab-L-Leu]] (Octanoyl-[dDap][Dab][Dab][dF]L[Dab][Dab]L; lactam 2-C)",–,8,–,–,–,–,16,16,–,–,2,–,> 300,"MIC, A. baumannii ATCC 19606 [1]: >32 µg/mL; MIC, E. coli ATCC 25922 [3]: 4 µg/mL; MIC, K. pneumoniae ATCC 13883 [4]: 8 µg/mL; MIC, K. pneumoniae ATCC 700603, MDR [5]: 8 µg/mL; MIC, K. pneumoniae ATCC BAA-2146, NDM-1 pos [6]: 8 µg/mL; MIC, P. aeruginosa ATCC 27853 [9]: 2 µg/mL; MIC P. aeruginosa GN_043, PmxR ([10]; Table 6): 2 µg/mL; MIC, S. aureus ATCC 25923, MSSA [12]: >32 µg/mL"
"CC(=O)N[C@H](CN)C(=O)N[C@H]1CCNC(=O)[C@H](CC(C)C)NC(=O)[C@H](CCN)NC(=O)[C@H](CCN)NC(=O)[C@H](CC(C)C)NC(=O)[C@@H](Cc2ccccc2)NC(=O)[C@H](CCN)NC1=O [compound 8980, Ac-D-Dap-cyc[L-Dab-L-Dab-D-Phe-L-Leu-L-Dab-L-Dab-L-Leu]] (Ac-[dDap][Dab][Dab][dF]L[Dab][Dab]L; lactam 2-C)",–,>32,–,–,–,–,>32,>32,–,–,>32,–,> 300,"MIC, A. baumannii ATCC 19606 [1]: >32 µg/mL; MIC, E. coli ATCC 25922 [3]: >32 µg/mL; MIC, K. pneumoniae ATCC 13883 [4]: >32 µg/mL; MIC, K. pneumoniae ATCC 700603, MDR [5]: 32 µg/mL; MIC, K. pneumoniae ATCC BAA-2146, NDM-1 pos [6]: 32 µg/mL; MIC, P. aeruginosa ATCC 27853 [9]: 4 µg/mL; MIC P. aeruginosa GN_043, PmxR ([10]; Table 6): >32 µg/mL; MIC, S. aureus ATCC 25923, MSSA [12]: >32 µg/mL"
